{"source": "paper PMC5095062", "about": "“The novel choline kinase inhibitor ICL-CCIC-0019 reprograms cellular metabolism and inhibits cancer cell growth” (Oncotarget, 2016)", "key": {"HCT116 xenografts [1]": {"system": "HCT116 xenografts", "experiment": "[18F]-D4-FCH PET imaging", "format": "in vivo, BALB/c nude mice", "source_text": "Mice were anesthetized through isoflurane inhalation and scanned on a Siemens Multimodality Inveon small animal PET-CT scanner for [^18F]-D4-FCH PET studies using HCT116 xenografts. Low dose CT scans were first acquired (80 kVp, 0.5 mA, 220 degree rotation, 600 ms per degree exposure time, 80 μm reconstruction pixel size) for PET attenuation correction and anatomical reference. PET images were acquired following a bolus i.v. injection of approximately 3.7 MBq tracer in the tail vein. Dynamic emission scans were acquired in list mode format over 60 minutes. Data were sorted into 0.5 mm sinogram bins and 19 time frames for image reconstruction by filtered back projection (4 × 15 seconds, 4 × 60 seconds and 11 × 300 seconds). The Siemens Inveon Research Workplace software was used for visualization of radiotracer uptake. To define 3-dimensional regions of interest (ROI), 30 to 60-minute cumulative images of the dynamic were employed. Arterial input function was estimated by drawing ROIs over the center of the heart cavity using cumulative images from 0.25 to 2 minutes of the dynamic series, a method previously validated for use in rodents. The count densities were averaged for all ROIs at each time point to obtain time versus radioactivity curves (TAC). Tumor TACs were normalized to injected dose measured by a VDC-304 dose calibrator (Veenstra Instruments) and normalized uptake was expressed as percentage injected dose per mL tissue (NUV; %ID/mL)."}, "[2]": {"target": "T1, recombinant human Δ49N CHKA2 (Homo sapiens, UniProt P35790)", "T1 sequence (P35790 50-457 limits assumed, stated change not applied)": "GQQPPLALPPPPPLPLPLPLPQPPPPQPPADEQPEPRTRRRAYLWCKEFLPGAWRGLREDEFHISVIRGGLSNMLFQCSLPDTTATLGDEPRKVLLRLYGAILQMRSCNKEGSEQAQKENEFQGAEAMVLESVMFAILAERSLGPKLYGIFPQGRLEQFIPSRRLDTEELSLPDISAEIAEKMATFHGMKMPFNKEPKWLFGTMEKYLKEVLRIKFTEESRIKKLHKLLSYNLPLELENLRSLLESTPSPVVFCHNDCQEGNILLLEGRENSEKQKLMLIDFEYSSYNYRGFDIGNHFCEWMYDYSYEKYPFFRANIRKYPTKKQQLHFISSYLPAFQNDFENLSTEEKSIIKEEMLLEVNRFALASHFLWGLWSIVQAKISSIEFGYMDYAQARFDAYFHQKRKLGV", "experiment": "Enzymatic inhibition of choline kinase activity", "format": "biochemical", "method": "(§1) Enzymatic kinase activity, [^3H]choline to [^3H]PCho conversion and growth inhibition assays was conducted as previously described. [^3H]choline incorporation into soluble and lipid fractions was determined by a pulse-chase experiment. HCT116 cells were seeded at a density of 3 × 10^5 cell per well into 12-well plates and incubated overnight. Cells were treated with 1 or 10 μM ICL-CCIC-0019 for 1 h and pulsed in presence of inhibitor with 18.5 kBq/mL [^3H]choline chloride in 500 μL for 1 additional h. Cells were briefly rinsed with RPMI and incubated with fresh, non-radioactive medium for 6 h. Metabolites were extracted as described elsewhere, but additionally the radioactivity of the choline-containing and chloroform (lipid-containing) fractions was measured. Uptake of radiolabeled metabolite-tracers was measured as described elsewhere. Antiproliferative activity was measured after 72 h continuous exposure to inhibitors by sulforhodamine B (SRB) assay as described elsewhere. Apoptosis was determined using Caspase 3/7 Glo assay (Promega) according to the manufacturer's instructions."}, "AMPK": {"system": "AMPK", "experiment": "Kinase selectivity screen", "format": "biochemical, rat", "method": "The substantially less demanding synthesis of ICL-CCIC-0019 compared with MN58B bears additional advantages. […] This consequently diminished intracellular PCho concentration, and importantly, the incorporation of [^3H]-choline into lipids (Figure 1D). […] To assess kinase specificity, ICL-CCIC-0019 was tested against a panel of 131 human kinases (Figure 1E and Supplementary Table S1). […] Inhibition greater than 20% was attained for insulin-like growth factor 1 (IGF-1R, 35 ± 7% inhibition), mitogen-activated protein kinase-activated protein kinase 3 (MAPKAP-K3, 33 ± 6%), extracellular signal regulated kinase 8 (ERK8, 31 ± 4%), ribosomal S6 kinase 1 (RSK1, 22 ± 6%), and v-erb-a erythroblastic leukemia viral oncogene homolog 4 (HER4, 21 ± 7%)."}, "HCT116 xenografts [3]": {"system": "HCT116 xenografts", "experiment": "Antitumor activity in HCT116 xenograft model", "format": "in vivo, BALB/c nude mice", "details": "5 mg/kg i.p. once a day on days 1–3, 11 day recovery", "method": "All animal experiments were conducted in accordance with the United Kingdom Home Office Guidance on the Operation of The Animals (Scientific Procedures) Act 1986 Amendment Regulations 2012 and within the published guidelines for the welfare and use of animals in cancer research. Xenografts were established in female BALB/c nude mice aged 6–8 weeks (Harlan) by subcutaneous (s.c.) injection of 100 μL HCT116 cells (5 × 10^6 in PBS) on the back of mice. Tumor dimensions were frequently measured by calliper and volumes calculated by the following equation: volume (mm^3) = (π/6) × a × b × c, where a, b, and c represent 3 orthogonal axes of the tumor. When tumor volumes reached approximately 50–100 mm^3 (ca. 10 days post injection), mice were used for subsequent studies."}, "[4]": {"experiment": "Plasma metabolite analysis by LC-MS", "format": "in vivo, BALB/c mice", "details": "pooled 2-hour plasma samples", "method": "(§2) Plasma pharmacokinetic parameters of ICL-CCIC-0019 were established in female BALB/c mice aged 6–8 weeks (Harlan). Mice were intraperitoneally (i.p.) or perorally (p.o.) administered a single dose of 10 mg/kg and blood collected by cardiac puncture after 5, 15, 30 minutes and 1, 2, 4, 6 and 24 h. For tissue pharmacokinetic studies, HCT116 xenograft bearing mice were administered 10 mg/kg ICL-CCIC-0019 i.p. and blood collected after 5 minutes, 2, 6 and 24 h. Plasma was obtained by centrifugation at 1000 × g for 10 minutes. Samples were snap-frozen and stored at −80°C prior to analysis. Analysis was carried out by Cyprotex Inc. using liquid chromatography–mass spectrometry (LC–MS). For analysis of plasma metabolites, 2-hour samples of tissue pharmacokinetic studies were pooled."}, "[5]": {"experiment": "Tissue pharmacokinetics in HCT116 xenograft bearing mice", "format": "in vivo, BALB/c nude mice", "details": "10 mg/kg i.p.", "method": "as §2"}, "8 cancer cell lines": {"system": "8 cancer cell lines", "experiment": "Antiproliferative activity (SRB), initial cell line screen", "format": "cell-based", "details": "Homo sapiens", "method": "as §1"}, "2 normal cell lines": {"system": "2 normal cell lines", "experiment": "Antiproliferative activity (SRB), initial cell line screen", "format": "cell-based", "details": "Homo sapiens; normal cells", "method": "as §1"}, "[6]": {"target": "T1, recombinant human Δ49N CHKA2", "details": "cited from earlier work"}}, "note": "Like-named read-outs stand apart in the source and are kept apart here."}
{"smiles": "CN(C)c1cc[n+](CCCCCCCCCCCC[n+]2ccc(N(C)C)cc2)cc1", "note": "[ICL-CCIC-0019]", "values": [{"measurement": "[18F]-D4-FCH tumor uptake AUC0–60", "setting": "HCT116 xenografts [1]; 6 hours after 10 mg/kg i.p. single dose", "result": "187.7 (%ID/mL)*min"}, {"measurement": "[18F]-D4-FCH tumor uptake AUC0–60", "setting": "HCT116 xenografts [1]; 24 hours after 10 mg/kg i.p. single dose", "result": "145.8 (%ID/mL)*min"}, {"measurement": "[18F]-D4-FCH tumor uptake AUC0–60", "setting": "HCT116 xenografts [1]; 48 hours after 10 mg/kg i.p. single dose", "result": "139.4 (%ID/mL)*min"}, {"measurement": "potency compared with MN58B", "setting": "[2]; CHKA inhibition", "result": "equipotent to MN58B"}, {"measurement": "potency relative to CK37 (times more potent)", "setting": "[2]; CHKA inhibition", "result": "> 500", "unit": "times"}, {"measurement": "IC50", "setting": "[2]; read-out: IC50 of CHKA activity", "result": "0.27 ± 0.06", "unit": "µM"}, {"measurement": "% activity remaining", "setting": "AMPK; AMPK, 10 μM", "result": 109, "unit": "%"}, {"measurement": "direct effect on AMPK activity", "setting": "AMPK; cell-free kinase assays", "result": "did not directly alter AMPK activity"}, {"measurement": "antitumour activity", "setting": "HCT116 xenografts [3]", "result": "potent antitumour activity"}, {"measurement": "metabolic stability in plasma", "setting": "[4]", "result": "metabolically stable"}, {"measurement": "time of peak tumor concentration post injection", "setting": "[5]", "result": 2, "unit": "h"}, {"measurement": "GI50", "setting": "8 cancer cell lines; read-out: GI50 range", "result": "0.38 to 2.7", "unit": "µM"}, {"measurement": "GI50", "setting": "8 cancer cell lines; read-out: mean GI50", "result": 1.09, "unit": "µM"}, {"measurement": "GI50", "setting": "2 normal cell lines", "result": "30 to 120", "unit": "µM"}, {"measurement": "mode of CHKA inhibition", "setting": "[6]", "result": "competitive with choline, but not ATP"}]}
